Legend:
Type in all cases: cell-based, mouse
MyoD = MyoD expression in myostatin-treated myotubes (Western blotting); conditions: extract 30 μg/ml
Experimental: (§1) The myotubes differentiated by the same method as in Test Example 5-2 were treated with myostatin and the processed ginseng extract of Example 2 to secure cells. The treatment concentrations of the processed ginseng extract of Example 2 was 30 μg/ml. The secured cells were subjected to Western blotting using antibodies corresponding to MyoD and MAFbx by the same method as in Test Example 6-1, and the results are shown in FIG. 8.

[1] = test system: myotubes differentiated from C2C12; experiment: Myostatin-induced myoatrophy cell model (myotube breadth)
Experimental: After myotubes were differentiated by the same method as in the induction of myotube differentiation of Test Example 1, the cells were added in DMEM not containing FBS, and cultured for 3 hours. After culturing, the cells were treated with the myogenesis inhibitor myostatin (MSTN) at different concentrations for 24 hours, and the change in breadth of myotubes was measured in order to investigate whether myoatrophy was induced. The change in breadth of myotubes was measured by the same method as in Test Example 4, and after the immunofluorescent staining, images of myotubes were observed using the fluorescent substance attached to MHC through a microscope, and the Image J program was used to determine the breadth of myotubes.
To investigate the myoatrophy inhibitory effect of the processed ginseng extracts of the present invention, myoatrophy was induced by the same method as the construction method of myoatrophy animal cell models in Test Example 5-1, and then the change in myotube breadth was observed. The myotubes were treated with 0.4 μg/0 myostatin (MSTN) and 30 μg/0 the processed ginseng extract of Example 2 alone or in combination, and the myotubes not treated with myostatin and the processed ginseng extract of Example 2 were used as a control group.

MAFbx = MAFbx expression in myostatin-treated myotubes (Western blotting); conditions: extract 30 μg/ml
Experimental: as §1

[2] = test system: phosphorylated Smad2 (pSmad2); experiment: Smad2 phosphorylation in myostatin-treated myotubes (Western blotting); conditions: myotubes treated with myostatin; extract 0, 10, 30, and 100 μg/ml
Experimental: The myotubes differentiated by the same method as in Test Example 5-2 were treated with myostatin and the processed ginseng extract of Example 2 to secure cells, and the cells were subjected to Western blotting. The treatment concentrations of the processed ginseng extract of Example 2 was 0, 10, 30, and 100 μg/ml. A lysis buffer was added to the secured cells to lyse cells, and then centrifugation was used to secure proteins of the supernatant. The secured proteins of the supernatant were separated through sodium dodecyl sulfate polyacrylamide gel electrophoresis (SDS-PAGE) and transferred to a polyvinylidene fluoride (PVDF) membrane. The membrane was blocked by a blocking solution, treated with a primary antibody in order to determine the amounts of Smad2 and phosphorylated Smad2 (pSmad2), and then treated with a secondary antibody to the primary antibody. Then, enhanced chemiluminescence (ECL, Amersham) was used to examine protein expression.

Substance: myostatin: myogenesis inhibitor protein of the TGF-β group, used to induce myotube atrophy
- MyoD expression (compared with GAPDH) (MyoD): reduction in MyoD expression
- myotube breadth compared with the control group, treatment alone ([1]; 30 μg/0 Example 2 extract or 0.4 μg/0 myostatin alone): reduced
- myostatin concentration giving greatest reduction in breadth of myotubes ([1]; 24 hours): 0.4 μg/0
- breadth of myotubes compared with myotubes not treated with myostatin ([1]; myostatin at different concentrations for 24 hours): reduced in breadth of myotubes with the increase of the treatment concentration
- MAFbx expression (compared with GAPDH) (MAFbx): increase in MAFbx expression
- Smad2 phosphorylation (pSmad2) [2]: increased
